# Data: publication PMC2917628 (FEBS letters, 2010)
# Where a name gives a salt, the structure may show the parent alone.
# B1: PDGF: PDGF BB (cat # 3201), Sigma-Aldrich (protein, UniProt P01127 82-190, looked up)
# Platelet-derived growth …: SLGSLTIAEPAMIAECKTRTEVFEISRRLIDRTNANFLVWPPCVEVQRCSGCCNNRNVQCRPTQVQLRPVQVRKIEIVRKKPIFKKATVTLEDHLACKCETVAAARPVT
# modifications: Platelet-derived growth factor subunit B homodimer
# Experiments:
# NIH 3T3 cells = settings: ref [9]; cited from earlier work
# [1] = test system: LNCaP cells expressing Abi1 Y213F; assay: flow cytometric uptake of Alexa Fluor 647; assay type: cell-based; settings: 25 μM Alexa Fluor 647 hydrazide, 2 hours
# [2] = test system: macropinocytic uptake of pathogenic bacteria; settings: ref [10],[11]; cited from earlier work
# [3] = test system: macropinocytic uptake and membrane ruffles; settings: ref [21]; cited from earlier work
# Rac1 activation = settings: ref [25]; cited from earlier work
molecule,measurement,setting,value
O=c1cc(N2CCOCC2)oc2c(-c3ccccc3)cccc12 [LY294002],macropinocytic uptake of Alexa Fluor 594,NIH 3T3 cells,inhibit macropinocytic uptake
"C/C1=C/C(=O)O[C@@H]2C[C@@H](CC[C@H](C)/C=C\C=C\CC1)O[C@@](O)([C@@H]1CSC(=O)N1)C2 [Latrunculin A, latrunculin A]","macropinocytic uptake of Alexa Fluor 647 with latrunculin A, Abi1 Y213F cells","[1]; 0.2 μM latrunculin A, PDGF not added",significant decrease
"Cc1ccc(NC(=O)c2ccc(CN3CCN(C)CC3)cc2)cc1Nc1nccc(-c2cccnc2)n1 [STI-571, Imatinib mesylate]",macropinocytic uptake of pathogenic bacteria,[2],inhibits macropinocytic uptake of pathogenic bacteria
COC[C@H]1OC(=O)c2coc3c2[C@@]1(C)C1=C(C3=O)[C@@H]2CCC(=O)[C@@]2(C)C[C@H]1OC(C)=O [wortmannin],macropinocytic uptake of Alexa Fluor 594,NIH 3T3 cells,inhibit macropinocytic uptake
same,macropinocytic uptake and formation of membrane ruffles,[3],inhibits macropinocytic uptake and the formation of membrane ruffles but not in all cells
B1,"PDGF response of Alexa Fluor 647 uptake, Abi1 Y213F cells",[1]; 10 ng/ml PDGF,demonstrated PDGF response
same,Rac1 activation following PDGF stimulation,Rac1 activation,enhanced Rac1 activation
